Laboratory results as given in ChEMBL document CHEMBL3045705, “Thermal, kinetic, spectroscopic studies and anti-microbial, anti-tuberculosis, anti-oxidant properties of clioquinol and benzo-coumarin derivatives mixed complexes with copper ion” (2013).
Values after ≈ are worked out from the molar mass of the structure shown.

Tests used:
Assay type in all cases: functional
Aspergillus niger = assay: Antifungal activity against Aspergillus niger ATCC 64958 after 16 to 18 hr by Kirby-Bauer disc diffusion method
Candida albicans = assay: Antifungal activity against Candida albicans ATCC 66027 after 16 to 18 hr by Kirby-Bauer disk diffusion method
[1] = system: Mycobacterium tuberculosis; assay: Growth inhibition of Mycobacterium tuberculosis H37Rv MTCC 200 at MIC after 28 days by micro dilution anti-microbial susceptibility test
Bacillus subtilis = assay: Antibacterial activity against Bacillus subtilis ATCC 11774 after 16 to 18 hr by Kirby-Bauer disk diffusion method
Escherichia coli = assay: Antibacterial activity against Escherichia coli ATCC 25922 after 16 to 18 hr by Kirby-Bauer disc diffusion method
[2] = system: Mycobacterium tuberculosis; assay: Antitubercular activity against Mycobacterium tuberculosis H37Rv MTCC 200 after 28 days by micro dilution anti-microbial susceptibility test; settings: H37Rv MTCC 200, 672 h
Streptococcus pyogenes = assay: Antibacterial activity against Streptococcus pyogenes ATCC 12384 after 16 to 18 hr by Kirby-Bauer disc diffusion method
Pseudomonas aeruginosa = assay: Antibacterial activity against Pseudomonas aeruginosa ATCC 25619 after 16 to 18 hr by Kirby-Bauer disc diffusion method

Molecule | MIC (Aspergillus niger) | MIC (Candida albicans) | growth inhibition (GI) [1] | MIC (Bacillus subtilis) | MIC (Escherichia coli) | MIC [2] | MIC (Streptococcus pyogenes) | MIC (Pseudomonas aeruginosa)
O=C(/C=C/c1ccc([N+](=O)[O-])cc1)c1cc2c(ccc3ccccc32)oc1=O | 200 µg/mL (≈ 539 µM) | 200 µg/mL (≈ 539 µM) | 54% | 200 µg/mL (≈ 539 µM) | 100 µg/mL (≈ 269 µM) | 50 µg/mL (≈ 135 µM) | 100 µg/mL (≈ 269 µM) | 200 µg/mL (≈ 539 µM)
NYSTATIN | 100 µg/mL | 100 µg/mL |  |  |  |  |  | 
CC1(C)S[C@@H]2[C@H](NC(=O)[C@H](N)c3ccccc3)C(=O)N2[C@H]1C(=O)O [AMPICILLIN] |  |  |  | 100 µg/mL (≈ 286 µM) | 100 µg/mL (≈ 286 µM) |  | 100 µg/mL (≈ 286 µM) | 100 µg/mL (≈ 286 µM)
OC(Cn1cncn1)(Cn1cncn1)c1ccc(F)cc1F [FLUCONAZOLE] | 10 µg/mL (≈ 32.7 µM) | 10 µg/mL (≈ 32.7 µM) |  |  |  |  |  | 
O=C(/C=C/c1cccc(O)c1)c1cc2c(ccc3ccccc32)oc1=O | 200 µg/mL (≈ 584 µM) | 200 µg/mL (≈ 584 µM) | 23% | 600 µg/mL (≈ 1750 µM) | 400 µg/mL (≈ 1170 µM) | 100 µg/mL (≈ 292 µM) | 200 µg/mL (≈ 584 µM) | 200 µg/mL (≈ 584 µM)
CC[C@@H](CO)NCCN[C@@H](CC)CO [ETHAMBUTOL] |  |  | 99% |  |  | 3.12 µg/mL (≈ 15.3 µM) |  | 
CN[C@@H]1[C@H](O[C@H]2[C@H](O[C@H]3[C@H](O)[C@@H](O)[C@H](N=C(N)N)[C@@H](O)[C@@H]3N=C(N)N)O[C@@H](C)[C@]2(O)C=O)O[C@@H](CO)[C@H](O)[C@H]1O [STREPTOMYCIN] |  |  | 98% |  |  | 6.25 µg/mL (≈ 10.7 µM) |  | 
NNC(=O)c1ccncc1 [ISONIAZID] |  |  | 99% |  |  | 0.25 µg/mL (≈ 1.82 µM) |  | 
O=C(/C=C/c1ccccc1)c1cc2c(ccc3ccccc32)oc1=O | 200 µg/mL (≈ 613 µM) | 400 µg/mL (≈ 1230 µM) | 18% | > 600 µg/mL | 400 µg/mL (≈ 1230 µM) | 100 µg/mL (≈ 306 µM) | 400 µg/mL (≈ 1230 µM) | 400 µg/mL (≈ 1230 µM)
O=C(O)c1cn(C2CC2)c2cc(N3CCNCC3)c(F)cc2c1=O [CIPROFLOXACIN] |  |  |  | 5 µg/mL (≈ 15.1 µM) | 20 µg/mL (≈ 60.4 µM) |  | 20 µg/mL (≈ 60.4 µM) | 10 µg/mL (≈ 30.2 µM)
CCn1cc(C(=O)O)c(=O)c2cc(F)c(N3CCNCC3)cc21 [NORFLOXACIN] |  |  |  | 10 µg/mL (≈ 31.3 µM) | 10 µg/mL (≈ 31.3 µM) |  | 10 µg/mL (≈ 31.3 µM) | 10 µg/mL (≈ 31.3 µM)
O=C(/C=C/c1ccc(Cl)cc1)c1cc2c(ccc3ccccc32)oc1=O | 200 µg/mL (≈ 554 µM) | 200 µg/mL (≈ 554 µM) | 88% | 200 µg/mL (≈ 554 µM) | 100 µg/mL (≈ 277 µM) | 12.5 µg/mL (≈ 34.6 µM) | 100 µg/mL (≈ 277 µM) | 100 µg/mL (≈ 277 µM)
O=C(/C=C/c1ccc(O)cc1)c1cc2c(ccc3ccccc32)oc1=O | 400 µg/mL (≈ 1170 µM) | 200 µg/mL (≈ 584 µM) | 46% | 400 µg/mL (≈ 1170 µM) | 200 µg/mL (≈ 584 µM) | 50 µg/mL (≈ 146 µM) | 400 µg/mL (≈ 1170 µM) | 200 µg/mL (≈ 584 µM)
O=C(/C=C/c1ccccc1[N+](=O)[O-])c1cc2c(ccc3ccccc32)oc1=O | 200 µg/mL (≈ 539 µM) | 400 µg/mL (≈ 1080 µM) | 37% | 400 µg/mL (≈ 1080 µM) | 200 µg/mL (≈ 539 µM) | 50 µg/mL (≈ 135 µM) | 200 µg/mL (≈ 539 µM) | 400 µg/mL (≈ 1080 µM)
